Measurements taken from patent US10448639B2, “Fungicidal pyrazoles” (FMC CORPORATION, priority 2009, dated 2019).
Read-outs that look alike come from different tables or passages of the source.

Assays:
[1] = system: Puccinia recondita f. sp. tritici; experiment: Test I: wheat leaf rust, preventive spray on wheat seedlings, visual disease rating; conditions: for Test I rating (% disease control) / Test I disease control rating: wheat leaf rust, 100 = 100% disease control; for pest or weed control at 200 µg/mL: 192 h; for Test I disease control rating: sprayed the day before inoculation, 0 = no disease control relative to controls
[2] = system: Botrytis cinerea; experiment: Test B: tomato Botrytis, preventive spray on tomato seedlings, visual disease rating; conditions: for Test B rating (% disease control) / Test B disease control rating: tomato Botrytis, 100 = 100% disease control; for pest or weed control at 200 µg/mL: Botrytis cinerea, in Solanum lycopersicum, 120 h; for Test B disease control rating: 0 = no disease control relative to controls
[3] = system: Septoria tritici; experiment: Test G: wheat leaf blotch, preventive spray on wheat seedlings, visual disease rating; conditions: for Test G rating (% disease control) / Test G disease control rating: wheat leaf blotch, 100 = 100% disease control; for pest or weed control at 200 µg/mL: Zymoseptoria tritici, in Triticum aestivum, 504 h; for Test G disease control rating: sprayed the day before inoculation, 0 = no disease control relative to controls
[4] = system: Alternaria solani; experiment: Test C: tomato early blight, preventive spray on tomato seedlings, visual disease rating; conditions: for Test C rating (% disease control) / Test C disease control rating: tomato early blight, 100 = 100% disease control; for pest or weed control at 200 µg/mL: Alternaria solani, in Solanum lycopersicum, 168 h; for Test C disease control rating: 0 = no disease control relative to controls
Text: (§1) General protocol for preparing test suspensions for Tests A-J: the test compounds were first dissolved in acetone in an amount equal to 3% of the final volume and then suspended at the desired concentration (in ppm) in acetone and purified water (50/50 mix by volume) containing 250 ppm of the surfactant Trem® 014 (polyhydric alcohol esters). The resulting test suspensions were then used in Tests A-J. Spraying a 200 ppm test suspension to the point of run-off on the test plants was the equivalent of a rate of 500 g/ha. Unless otherwise indicated, the rating values indicate a 200 ppm test suspension was used. (An asterisk “*” next to the rating value indicates a 40 ppm test suspension was used.)
The test suspension was sprayed to the point of run-off on tomato seedlings. The following day the seedlings were inoculated with a spore suspension of Alternaria solani (the causal agent of tomato early blight) and incubated in a saturated atmosphere at 27° C. for 48 h, and then moved to a growth chamber at 20° C. for 5 days, after which time visual disease ratings were made.

[5] = system: Erysiphe graminis f sp. tritici; experiment: Test J: wheat powdery mildew, preventive spray on wheat seedlings, visual disease rating; conditions: for Test J rating (% disease control) / Test J disease control rating: wheat powdery mildew, 100 = 100% disease control; for pest or weed control at 200 µg/mL: Blumeria graminis, in Triticum aestivum, 192 h; for Test J disease control rating: sprayed the day before inoculation, 0 = no disease control relative to controls
[6] = system: Septoria nodorum; experiment: Test F: Septoria glume blotch, preventive spray on wheat seedlings, visual disease rating; conditions: for Test F rating (% disease control) / Test F disease control rating: 100 = 100% disease control; for pest or weed control at 200 µg/mL: Parastagonospora nodorum, in Triticum aestivum, 192 h; for Test F disease control rating: 0 = no disease control relative to controls
Text: as §1
The test suspension was sprayed to the point of run-off on wheat seedlings. The following day the seedlings were inoculated with a spore suspension of Septoria nodorum (the causal agent of Septoria glume blotch) and incubated in a saturated atmosphere at 24° C. for 48 h, and then moved to a growth chamber at 20° C. for 6 days, after which time visual disease ratings were made.

[7] = system: Puccinia recondita f. sp. tritici; experiment: Test H: wheat leaf rust, curative spray on inoculated wheat seedlings, visual disease rating; conditions: for Test H rating (% disease control) / Test H disease control rating: wheat leaf rust, 100 = 100% disease control; for pest or weed control at 200 µg/mL: 144 h; for Test H disease control rating: sprayed after inoculation, 0 = no disease control relative to controls
[8] = preventive, 0 = no control relative to controls
[9] = 0 = no control relative to controls
[10] = Septoria glume blotch, 0 = no control relative to controls
[11] = curative, 0 = no control relative to controls
[12] = preventive spray, 0 = no control
[13] = Septoria glume blotch on wheat, preventive spray, 0 = no control
[14] = read-out: Test I rating (% disease control)
[15] = read-out: Test B rating (% disease control)
[16] = read-out: Test G rating (% disease control)
[17] = read-out: Test C rating (% disease control)
[18] = read-out: Test J rating (% disease control)
[19] = read-out: Test F rating (% disease control)
[20] = read-out: Test H rating (% disease control)

## COc1ccc(Cl)c(Nc2c(-c3c(F)cccc3F)c(C)nn2C)c1 [compound 215]
[1]; [8]
  Test I rating (% disease control): 94%
[2]; [9]
  Test B rating (% disease control): 89%
[3]; [9]
  Test G rating (% disease control): 98%
[4]; [9]
  Test C rating (% disease control): 0%
[5]; [9]
  Test J rating (% disease control): 99%
[6]; [10]
  Test F rating (% disease control): 0%
[7]; [11]
  Test H rating (% disease control): 0%

## COc1cc(F)c(-c2c(C)nn(C)c2Oc2ccc(Cl)cc2Cl)c(F)c1 [compound 40]
[1]; [12]
  Test I rating (% disease control): 99%
[2]; [12]
  Test B rating (% disease control): 99%
[3]; [12]
  Test G rating (% disease control): 94%
[4]; [12]
  Test C rating (% disease control): 0%
[5]; [12]
  Test J rating (% disease control): 99%
[6]; [13]
  Test F rating (% disease control): 0%
[7]; curative spray, 0 = no control
  Test H rating (% disease control): 92%

## Cc1nn(C)c(Nc2c(F)cc(F)cc2F)c1-c1ccc(F)cc1Cl [Compound 18, 4-(2-chloro-4-fluorophenyl)-1,3-dimethyl-N-(2,4,6-trifluorophenyl)-1H-pyrazol-5-amine]
[1]; [14]
  pest or weed control at 200 µg/mL: 100%
[2]; [15]
  pest or weed control at 200 µg/mL: 99%
[3]; [16]
  pest or weed control at 200 µg/mL: 95%
[4]; [17]
  pest or weed control at 200 µg/mL: 100%
[5]; [18]
  pest or weed control at 200 µg/mL: 100%
[6]; [19]
  pest or weed control at 200 µg/mL: 99%
[7]; [20]
  pest or weed control at 200 µg/mL: 99%

## Cc1nn(C)c(Oc2ccc([N+](=O)[O-])cc2)c1-c1c(F)cc(F)cc1F [compound 26]
[1]; [12]
  Test I rating (% disease control): 99%
[2]; [12]
  Test B rating (% disease control): 99%
[3]; [12]
  Test G rating (% disease control): 100%
[4]; [12]
  Test C rating (% disease control): 83%
[5]; [12]
  Test J rating (% disease control): 100%
[6]; [13]
  Test F rating (% disease control): 0%
[7]; curative spray, 0 = no control
  Test H rating (% disease control): 0%

## Cc1nn(C)c(Oc2cc(F)c(C#N)cc2F)c1-c1c(F)cc(F)cc1F [compound 99]
[1]; [12]
  Test I rating (% disease control): 100%
[2]; [12]
  Test B rating (% disease control): 100%
[3]; [12]
  Test G rating (% disease control): 99%
[4]; [12]
  Test C rating (% disease control): 99%
[5]; [12]
  Test J rating (% disease control): 100%
[6]; [13]
  Test F rating (% disease control): 100%
[7]; curative spray, 0 = no control
  Test H rating (% disease control): 40%

## Cc1nn(C)c(Nc2cccc(Cl)c2Cl)c1-c1c(F)cc(C#N)cc1F [compound 147]
[1]; [12]
  Test I rating (% disease control): 98%
[2]; [12]
  Test B rating (% disease control): 99%
[3]; [12]
  Test G rating (% disease control): 100%
[4]; [12]
  Test C rating (% disease control): 88%
[5]; [12]
  Test J rating (% disease control): 92%
[6]; [13]
  Test F rating (% disease control): 100%
[7]; curative spray, 0 = no control
  Test H rating (% disease control): 0%

## Cc1nn(C)c(Nc2ccc(C#N)cn2)c1-c1ccc(F)cc1Cl [compound 67]
[1]; [12]
  Test I rating (% disease control): 95%
[2]; [12]
  Test B rating (% disease control): 95%
[3]; [12]
  Test G rating (% disease control): 99%
[4]; [12]
  Test C rating (% disease control): 0%
[5]; [12]
  Test J rating (% disease control): 86%
[6]; [13]
  Test F rating (% disease control): 0%
[7]; curative spray, 0 = no control
  Test H rating (% disease control): 24%

## Cc1nn(C)c(Oc2cc(F)cc(C#N)c2)c1-c1ccc(F)cc1Cl [compound 116]
[1]; [12]
  Test I rating (% disease control): 97%
[2]; [12]
  Test B rating (% disease control): 100%
[3]; [12]
  Test G rating (% disease control): 100%
[4]; [12]
  Test C rating (% disease control): 94%
[5]; [12]
  Test J rating (% disease control): 99%
[6]; [13]
  Test F rating (% disease control): 73%
[7]; curative spray, 0 = no control
  Test H rating (% disease control): 16%

## COc1ccc(Cl)c(-c2c(C)nn(C)c2Oc2c(F)cc(C#N)cc2F)c1 [compound 277]
[1]; [8]
  Test I rating (% disease control): 96%
[2]; [9]
  Test B rating (% disease control): 100%
[3]; [9]
  Test G rating (% disease control): 100%
[4]; [9]
  Test C rating (% disease control): 0%
[5]; [9]
  Test J rating (% disease control): 98%
[6]; [10]
  Test F rating (% disease control): 0%
[7]; [11]
  Test H rating (% disease control): 0%

## Cc1nn(C)c(Nc2ccc(Cl)cc2Cl)c1-c1c(Cl)cccc1Cl [compound 327]
[1]
  Test I disease control rating: 96%
[2]
  Test B disease control rating: 99%
[3]
  Test G disease control rating: 100%
[4]
  Test C disease control rating: 0%
[5]
  Test J disease control rating: 99%
[6]; Septoria glume blotch on wheat
  Test F disease control rating: 0%
[7]
  Test H disease control rating: 0%

## Cc1nn(C)c(Nc2c(F)cc(F)cc2F)c1-c1ccccc1F [compound 182]
[1]; [8]
  Test I rating (% disease control): 95%
[2]; [9]
  Test B rating (% disease control): 97%
[3]; [9]
  Test G rating (% disease control): 100%
[4]; [9]
  Test C rating (% disease control): 99%
[5]; [9]
  Test J rating (% disease control): 99%
[6]; [10]
  Test F rating (% disease control): 87%
[7]; [11]
  Test H rating (% disease control): 0%

## Cc1nn(C)c(Nc2c(F)cc(Cl)cc2F)c1-c1ccc(F)cc1F [Compound 357, N-(4-chloro-2,6-difluorophenyl)-4-(2,4-difluorophenyl)-1,3-dimethyl-1H-pyrazol-5-amine]
[1]; read-out: Test I disease control rating
  pest or weed control at 200 µg/mL: 99%
[2]; read-out: Test B disease control rating
  pest or weed control at 200 µg/mL: 100%
[3]; read-out: Test G disease control rating
  pest or weed control at 200 µg/mL: 100%
[4]; read-out: Test C disease control rating
  pest or weed control at 200 µg/mL: 86%
[5]; read-out: Test J disease control rating
  pest or weed control at 200 µg/mL: 100%
[6]; read-out: Test F disease control rating
  pest or weed control at 200 µg/mL: 87%
[7]; read-out: Test H disease control rating
  pest or weed control at 200 µg/mL: 0%

## Cc1nn(C)c(Oc2ccc(C#N)cc2F)c1-c1ccc(F)cc1Cl [Compound 118, 4-[[4-(2-chloro-4-fluorophenyl)-1,3-dimethyl-1H-pyrazol-5-yl]oxy]-3-fluorobenzonitrile]
[1]; [14]
  pest or weed control at 200 µg/mL: 100%
[2]; [15]
  pest or weed control at 200 µg/mL: 100%
[3]; [16]
  pest or weed control at 200 µg/mL: 100%
[4]; [17]
  pest or weed control at 200 µg/mL: 100%
[5]; [18]
  pest or weed control at 200 µg/mL: 99%
[6]; [19]
  pest or weed control at 200 µg/mL: 98%
[7]; [20]
  pest or weed control at 200 µg/mL: 99%

## Cc1nn(C)c(Nc2cccc(Cl)c2Cl)c1-c1ccc(F)cc1F [compound 231]
[1]; [8]
  Test I rating (% disease control): 86%
[2]; [9]
  Test B rating (% disease control): 98%
[3]; [9]
  Test G rating (% disease control): 100%
[4]; [9]
  Test C rating (% disease control): 34%
[5]; [9]
  Test J rating (% disease control): 100%
[6]; [10]
  Test F rating (% disease control): 0%
[7]; [11]
  Test H rating (% disease control): 0%

## Cc1nn(C)c(Nc2c(F)cccc2F)c1-c1ccc(F)cc1F [compound 256]
[1]; [8]
  Test I rating (% disease control): 99%
[2]; [9]
  Test B rating (% disease control): 99%
[3]; [9]
  Test G rating (% disease control): 100%
[4]; [9]
  Test C rating (% disease control): 99%
[5]; [9]
  Test J rating (% disease control): 100%
[6]; [10]
  Test F rating (% disease control): 96%
[7]; [11]
  Test H rating (% disease control): 0%

## Cc1nn(C)c(Nc2ncc(Cl)cc2Cl)c1-c1c(F)cccc1F [compound 321]
[1]
  Test I disease control rating: 99%
[2]
  Test B disease control rating: 100%
[3]
  Test G disease control rating: 100%
[4]
  Test C disease control rating: 99%
[5]
  Test J disease control rating: 100%
[6]; Septoria glume blotch on wheat
  Test F disease control rating: 78%
[7]
  Test H disease control rating: 9%

## COc1cc(F)ccc1Nc1c(-c2c(F)cccc2F)c(C)nn1C [compound 199]
[1]; [8]
  Test I rating (% disease control): 68%
[2]; [9]
  Test B rating (% disease control): 99%
[3]; [9]
  Test G rating (% disease control): 99%
[4]; [9]
  Test C rating (% disease control): 86%
[5]; [9]
  Test J rating (% disease control): 98%
[6]; [10]
  Test F rating (% disease control): 0%
[7]; [11]
  Test H rating (% disease control): 0%

## Cc1nn(C)c(Oc2c(F)cc(C#N)cc2F)c1-c1ccc(F)cc1Cl [Compound 45, 4-[[4-(2-chloro-4-fluorophenyl)-1,3-dimethyl-1H-pyrazol-5-yl]oxy]-3,5-difluorobenzonitrile]
[1]; [14]
  pest or weed control at 200 µg/mL: 100%
[2]; [15]
  pest or weed control at 200 µg/mL: 100%
[3]; [16]
  pest or weed control at 200 µg/mL: 100%
[4]; [17]
  pest or weed control at 200 µg/mL: 100%
[5]; [18]
  pest or weed control at 200 µg/mL: 100%
[6]; [19]
  pest or weed control at 200 µg/mL: 100%
[7]; [20]
  pest or weed control at 200 µg/mL: 7%

## COc1cc(F)c(-c2c(C)nn(C)c2Nc2ccc(OC)nc2)c(F)c1 [compound 95]
[1]; [12]
  Test I rating (% disease control): 0%
[2]; [12]
  Test B rating (% disease control): 99%
[3]; [12]
  Test G rating (% disease control): 97%
[4]; [12]
  Test C rating (% disease control): 16%
[5]; [12]
  Test J rating (% disease control): 0%
[6]; [13]
  Test F rating (% disease control): 0%
[7]; curative spray, 0 = no control
  Test H rating (% disease control): 0%
